Experimental data taken from paper PMC8826726, “Selective Toxicity of Secondary Metabolites from the Entomopathogenic Bacterium Photorhabdus luminescens sonorensis against Selected Plant Parasitic Nematodes of the Tylenchina Suborder” (Microbiology Spectrum, 2022).
In brackets after ≈: the same amount, converted by molar mass. Where two headings read alike, the source gives them in different places.

Tests used:
[1] = test system: SF-268 (central nervous system glioma); assay: MTT cytotoxicity assay; format: cell-based, human; settings: tested at 50, 100, 200 μM, data not shown
Experimental: (§1) The non-cancerous HFF cells (human foreskin cells) and three human cancer cell lines, NCI-H460 (non-small cell lung cancer), SF-268 (central nervous system glioma), and MCF-7 (breast cancer) were used to evaluate the in vitro cytotoxicity of the isolated Photorhabdus SMs. The MTT (3-(4,5-dimethylthiazol-2-yl)-2,5-diphenyltetrazolium bromide) colorimetric method ([54]) was used with doxorubicin as the positive control, and DMSO as the negative control. Photorhabdus SMs were tested at 50, 100, and 200 μM concentrations, and the assays were repeated three times.

[2] = test system: NCI-H460 (non-small cell lung cancer); assay: MTT cytotoxicity assay; format: cell-based, human; settings: tested at 50, 100, 200 μM, data not shown
Experimental: as §1

MCF-7 (breast cancer) = assay: MTT cytotoxicity assay; format: cell-based, human; settings: tested at 50, 100, 200 μM, data not shown
Experimental: as §1

[3] = test system: Meloidogyne incognita J2 juveniles; assay: In vitro nematistatic assay (temporary paralysis); format: cell-based
C. elegans = assay: In vitro nematistatic assay (temporary paralysis), non-target species; format: cell-based; settings: Caenorhabditis elegans; reversible paralysis, 24 h exposure
H. sonorensis = assay: as above; format: cell-based; settings: Heterorhabditis sonorensis; reversible paralysis, 24 h exposure

Which “In vitro cytotoxicity: none even at the highest concentration tested” value (from here on “In vitro cytotoxicity: none even”) [1] does the source give for c1ccc2[nH]ccc2c1 [Indole, indole] here?
Its value is > 200 µM.

And the “In vitro cytotoxicity: none even” value [2]?
Its value is > 200 µM.

What about the “In vitro cytotoxicity: none even” value (MCF-7 (breast cancer)) of the same molecule?
The value was > 200 µM.

And the EC10 ([3]; 24 h exposure)?
Its EC10 is 41.3 (36.8, 44.9) μg/mL.

What about the EC25 ([3]; 24 h exposure) of the same molecule?
The EC25 was 47.8 (43.9, 51.1) μg/mL.

And the EC50 ([3]; 24 h exposure)?
The EC50 was 56.3 µg/mL (≈ 481 µM).

What about the EC10 ([3]; 48 h exposure) of the same molecule?
The EC10 was 44.3 (36.8, 49.7) μg/mL.

What about the EC25 ([3]; 48 h exposure) of the same molecule?
Its EC25 is 51.7 (45.0, 56.6) μg/mL.

And the EC10 ([3]; 72 h exposure)?
The EC10 was 62.9 (31.4, 72.3) μg/mL.

And the EC25 ([3]; 72 h exposure)?
Its EC25 is 68.9 (42.1, 76.9) μg/mL.

And the EC50 ([3]; Meloidogyne incognita, 24 h, 24 h exposure, read-out: EC50)?
Its EC50 is 56 µg/mL (≈ 478 µM).

What about the EC90 ([3]; Meloidogyne incognita, 24 h exposure) of the same molecule?
The EC90 was 77 µg/mL (≈ 657 µM).

What about the EC50 ([3]; Meloidogyne incognita, 48 h, 48 h exposure, read-out: EC50) of the same molecule?
The EC50 was 61.3 µg/mL (≈ 523 µM).

And the EC90 ([3]; Meloidogyne incognita, 48 h exposure)?
Its EC90 is 84.7 µg/mL (≈ 723 µM).

And the EC50 ([3]; Meloidogyne incognita, 72 h, 72 h exposure, read-out: EC50)?
Its EC50 is 76.3 µg/mL (≈ 651 µM).

What about the EC90 ([3]; Meloidogyne incognita, 72 h exposure) of the same molecule?
Its EC90 is 92.5 µg/mL (≈ 790 µM).

And the EC50 (C. elegans)?
Its EC50 is 159 µg/mL (≈ 1360 µM).

And the EC50 (H. sonorensis)?
The EC50 was > 400 µg/mL.
